Several values for one entry are separate records, joined by “and”; a condition that tells them apart may be missing. Equal values may be shown once.
What was measured:
[1] = tested on: three human cancer cell lines; experiment: Growth inhibition by compound 39, total DNA content after 7 days growth; format: cell-based; conditions: 168 h, range across three human cancer cell lines, read-out: 50% inhibitory concentrations
Description: (§1) The following day, ent-steroidal compound 39 was added in 2-fold dilutions (8 wells/concentration). After 7 days growth, cells were lysed and analyzed for total DNA content as described in Montano et al. (See, Montano, R., et al., Mol. Cancer Therap., 11:427-438 [2012]).

[2] = tested on: AsPC-1; experiment: Growth inhibition by Compound 39 (DNA fluorescence, FIG. 3D); format: cell-based; conditions: Homo sapiens, ASPC1, read-out: calculated GI50 against AsPC-1
Description: as §1
(§2) Compound 39 was also investigated for growth inhibition in three cancer cell lines: MDA-MB-231, AsPC-1, and U2OS (human osteosarcoma).

[3] = tested on: MDA-MB-231; experiment: as above; format: cell-based; conditions: Homo sapiens, read-out: calculated GI50 against MDA-MB-231
Description: as §1, §2

[4] = tested on: U2OS (human osteosarcoma); experiment: as above; format: cell-based; conditions: read-out: calculated GI50 against U2OS
Description: as §1, §2

[5] = tested on: AsPC-1; experiment: In vitro growth inhibition (Hoechst 33258 DNA fluorescence, 6 days); format: cell-based; conditions: Homo sapiens, ASPC1, 144 h, concentration that inhibited growth by 50%, 2-fold dilutions from 40 μM
Description: (§3) Fifteen (15) exemplary compounds were investigated for growth inhibition in two cancer cell lines (one for breast and one for pancreatic cancer: MDA-MB-231 and AsPC-1, respectively).
(§4) Procedure: Inhibition of cell growth was accessed by plating 1000 cells per well of a 96-well plate. The following day, compounds were added as 2-fold dilutions from 40 μM (8 wells/concentration). After 6 days, cells were washed, lysed and stained with Hoechst 33258. Fluorescence was read on a microplate spectrofluorometer. Results are expressed as the concentration that inhibited growth by 50% (GI50). See Rao, J., Otto, W. R. Fluorometric DNA assay for cell growth estimation. Anal Biochem. 1992; 207:186-192.

[6] = tested on: MDA-MB-231; experiment: as above; format: cell-based; conditions: Homo sapiens, MDA-MB-231, 144 h, concentration that inhibited growth by 50%, 2-fold dilutions from 40 μM
Description: as §3, §4

[7] = tested on: MDA-MB-231, AsPC-1, and A549; experiment: Growth of several cancer cell lines incubated with Compound 205b; format: cell-based, human; conditions: range across MDA-MB-231, AsPC-1, and A549
Description: as §4
(§5) Compound 205b has been identified as a uniquely potent and selective agonist of ER-β, having an EC50=20 nM for ER-β and an EC50 over 3000 nM for ER-α.

[8] = target: CLK-4 (Homo sapiens, UniProt Q9HAZ1); experiment: Affinity to CLK-4; format: binding; conditions: member of the family of CDC-2-like kinases
Chain of CLK-4 (Q9HAZ1 whole entry, species assumed): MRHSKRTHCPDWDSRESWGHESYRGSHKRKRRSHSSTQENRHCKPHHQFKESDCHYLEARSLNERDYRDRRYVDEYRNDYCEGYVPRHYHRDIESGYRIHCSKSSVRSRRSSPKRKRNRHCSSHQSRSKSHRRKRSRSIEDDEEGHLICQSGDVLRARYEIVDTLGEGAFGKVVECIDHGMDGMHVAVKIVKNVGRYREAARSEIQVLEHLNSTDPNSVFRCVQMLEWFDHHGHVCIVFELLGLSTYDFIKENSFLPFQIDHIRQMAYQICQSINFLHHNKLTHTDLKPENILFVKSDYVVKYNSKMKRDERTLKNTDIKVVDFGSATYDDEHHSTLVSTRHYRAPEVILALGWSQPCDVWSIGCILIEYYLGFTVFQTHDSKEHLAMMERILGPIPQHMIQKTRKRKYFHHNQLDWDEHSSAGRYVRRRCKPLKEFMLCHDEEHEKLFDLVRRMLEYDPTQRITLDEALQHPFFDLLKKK

[9] = target: ER-β (Homo sapiens, UniProt Q92731); experiment: ER-β agonist activity; format: cell-based
Chain of ER-β (Q92731 whole entry, species assumed): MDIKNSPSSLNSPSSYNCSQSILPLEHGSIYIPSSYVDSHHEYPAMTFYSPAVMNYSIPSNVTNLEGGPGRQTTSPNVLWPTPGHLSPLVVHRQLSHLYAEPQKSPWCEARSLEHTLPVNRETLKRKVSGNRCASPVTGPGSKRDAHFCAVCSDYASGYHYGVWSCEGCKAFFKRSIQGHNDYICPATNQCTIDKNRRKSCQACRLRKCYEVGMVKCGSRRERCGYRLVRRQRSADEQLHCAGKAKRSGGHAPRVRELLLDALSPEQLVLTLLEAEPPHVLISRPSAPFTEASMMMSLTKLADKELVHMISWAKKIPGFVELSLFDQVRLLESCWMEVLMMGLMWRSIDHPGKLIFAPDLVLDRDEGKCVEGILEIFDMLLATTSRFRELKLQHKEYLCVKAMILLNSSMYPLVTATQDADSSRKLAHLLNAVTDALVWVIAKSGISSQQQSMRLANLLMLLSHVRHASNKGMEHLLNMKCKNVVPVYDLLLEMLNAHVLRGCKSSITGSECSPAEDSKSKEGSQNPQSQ

[10] = target: T1, ER-α (Homo sapiens, UniProt P03372); experiment: ER-α agonist activity; format: cell-based
T1 sequence (P03372 1-595): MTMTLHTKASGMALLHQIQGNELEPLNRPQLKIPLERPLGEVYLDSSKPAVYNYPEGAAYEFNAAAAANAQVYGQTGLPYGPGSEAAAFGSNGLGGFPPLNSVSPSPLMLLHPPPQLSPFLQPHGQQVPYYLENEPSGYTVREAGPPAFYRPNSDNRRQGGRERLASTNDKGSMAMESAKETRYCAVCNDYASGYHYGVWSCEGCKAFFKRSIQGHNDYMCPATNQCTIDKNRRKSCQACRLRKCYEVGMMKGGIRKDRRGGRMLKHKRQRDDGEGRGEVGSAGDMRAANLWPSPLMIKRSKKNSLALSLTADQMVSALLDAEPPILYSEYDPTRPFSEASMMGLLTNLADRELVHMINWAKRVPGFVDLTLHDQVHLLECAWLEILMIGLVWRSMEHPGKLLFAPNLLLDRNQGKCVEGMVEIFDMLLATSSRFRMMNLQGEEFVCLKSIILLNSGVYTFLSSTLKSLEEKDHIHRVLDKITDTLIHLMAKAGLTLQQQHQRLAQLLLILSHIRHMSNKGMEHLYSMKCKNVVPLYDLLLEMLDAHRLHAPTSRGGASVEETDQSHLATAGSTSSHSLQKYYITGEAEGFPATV

[11] = tested on: cancer cell lines (MDA-MB-231, AsPC-1, and A549); experiment: Cell cycle analysis and microscopic analysis of cancer cells treated with Compound 205b; format: cell-based, human; conditions: at 0.8-5 μM
Description: as §5

**Q.** Which IC50 [1] does the source give for `C[C@@]12CC=C3C(=CC(=O)c4ccccc43)[C@H]1C[C@H](O)C2` [Compound 39] here?
**A.** 1.2 µM to 4 µM and 0.32 µg/mL to 1.07 µg/mL

**Q.** What about the GI50 [2] of the same compound?
**A.** ~4 µM

**Q.** And the GI50 [3]?
**A.** 0.32 µg/mL and 1.2 µM

**Q.** And the GI50 [4]?
**A.** ~4 µM

**Q.** With `COc1ccc2c(Br)cc3c(c2c1)CC[C@]1(C)C[C@H](O)C[C@@H]31` [Compound 201a] as the compound, how does the GI50 [5] read?
**A.** 15 µM

**Q.** What about the GI50 [6] of the same compound?
**A.** 15 µM

**Q.** For `COc1ccc2ccc3c(c2c1)CC[C@]1(C)C[C@H](O)C[C@@H]31` [Compound 201b], which GI50 [5] is on record?
**A.** 30 µM

**Q.** What about the GI50 [6] of the same compound?
**A.** 25 µM

**Q.** How did the GI50 [5] turn out when `COc1ccc2c(C#Cc3ccccc3)cc3c(c2c1)CC[C@]1(C)C[C@H](O)C[C@@H]31` [Compound 201c] was run?
**A.** 30 µM

**Q.** And the GI50 [6]?
**A.** 20 µM

**Q.** What does the source list for `C[C@]12CCc3c(cc(Br)c4ccc(O)cc34)[C@@H]1C[C@@H](O)C2` [Compound 205a]?
**A.** GI50 [5]: 10 µM; GI50 [6]: 17 µM

**Q.** How did the “concentration at which growth was inhibited” value [7] turn out when `C[C@]12CCc3c(ccc4ccc(O)cc34)[C@@H]1C[C@@H](O)C2` [Compound 205b] was run?
**A.** 0.8 to 5 µM

**Q.** What about the Kd [8] of the same compound?
**A.** ~0.35 µM

**Q.** And the EC50 [9]?
**A.** 0.02 µM

**Q.** What about the EC50 [10] of the same compound?
**A.** > 3 µM

**Q.** And the “mitotic arrest by microscopic analysis” value [11]?
**A.** cells arrested in mitosis at prometaphase

**Q.** And the cell cycle arrest ([11]; parallel experiments)?
**A.** arrested cells in G2/M phase of the cell cycle

**Q.** And the GI50 [5]?
**A.** 2 µM

**Q.** What about the GI50 [6] of the same compound?
**A.** 0.8 µM

**Q.** `C[C@]12CCc3c(cc(C#Cc4ccccc4)c4ccc(O)cc34)[C@@H]1C[C@@H](O)C2` [Compound 205c] was tested. Which GI50 [5] did it give?
**A.** 9 µM

**Q.** And the GI50 [6]?
**A.** 8 µM

**Q.** What does the source list for `COc1ccc2c(Br)cc3c(c2c1)CC[C@]1(C)C[C@@H](O)C[C@@H]31` [Compound 206a]?
**A.** GI50 [5]: 20 µM; GI50 [6]: 20 µM

**Q.** What does the source list for `COc1ccc2ccc3c(c2c1)CC[C@]1(C)C[C@@H](O)C[C@@H]31` [Compound 206b]?
**A.** GI50 [5]: 40 µM; GI50 [6]: 30 µM

**Q.** Which results are given for `COc1ccc2c(C#Cc3ccccc3)cc3c(c2c1)CC[C@]1(C)C[C@@H](O)C[C@@H]31` [Compound 206c]?
**A.** GI50 [5]: 15 µM; GI50 [6]: 15 µM

**Q.** With `C[C@]12CCc3c(cc(Br)c4ccc(O)cc34)[C@@H]1C[C@H](O)C2` [Compound 207a] as the compound, how does the GI50 [5] read?
**A.** 30 µM

**Q.** What about the GI50 [6] of the same compound?
**A.** 30 µM

**Q.** How did the GI50 [5] turn out when `C[C@]12CCc3c(ccc4ccc(O)cc34)[C@@H]1C[C@H](O)C2` [Compound 207b] was run?
**A.** 40 µM

**Q.** What about the GI50 [6] of the same compound?
**A.** 20 µM

**Q.** How did the GI50 [5] turn out when `C[C@]12CCc3c(cc(C#Cc4ccccc4)c4ccc(O)cc34)[C@@H]1C[C@H](O)C2` [Compound 207c] was run?
**A.** 15 µM

**Q.** What about the GI50 [6] of the same compound?
**A.** 5 µM

**Q.** `COc1ccc2c(F)cc3c(c2c1)CC[C@]1(C)C[C@H](O)C[C@@H]31` [Compound 208a] was tested. Which GI50 [5] did it give?
**A.** 30 µM

**Q.** And the GI50 [6]?
**A.** 25 µM

**Q.** How did the GI50 [5] turn out when `C[C@]12CCc3c(cc(F)c4ccc(O)cc34)[C@@H]1C[C@@H](O)C2` [Compound 208b] was run?
**A.** 8 µM

**Q.** What about the GI50 [6] of the same compound?
**A.** 4 µM

**Q.** `COc1ccc2c(F)cc3c(c2c1)CC[C@]1(C)C[C@@H](O)C[C@@H]31` [Compound 208c] was tested. Which GI50 [5] did it give?
**A.** 25 µM

**Q.** And the GI50 [6]?
**A.** 5 µM
